Laboratory results reported in patent publication US20050197356A1, “Non-immunosuppressive immunophilin ligands as neuroprotective and/or neuroregenerative agents” (Wyeth, priority 2004, published 2005).

Key:
Format in all cases: cell-based, rat
[1] = tested on: cultured dopaminergic neurons; assay: High-affinity 3H-dopamine uptake after MPP+ induced toxicity in mesencephalic dopaminergic neuron cultures
Procedure: Mesencephalic dopaminergic neuron cultures were prepared as previously described in Pong et al., J Neurochem. 69: 986-994 (1997). Embryonic day 15 (E15) rat fetuses were collected and dissected in ice-cold phosphate-buffered saline (PBS). The ventral piece of tissue compromising the mesencephalic dopaminergic region was dissected out. Dissected pieces of tissue were pooled together and transferred to an enzymatic dissociation medium containing 20 IU/ml papain in Earle's balanced salt solution (Worthington Biochemical, Freehold, N.J., U.S.A.) and incubated for 60 minutes at 37° C. After enzymatic dissociation, the papain solution was aspirated and the tissue mechanically triturated with a fire-polished glass Pasteur pipette in complete medium [equal volumes of minimum essential medium (MEM) and F-12 nutrient mixture (Gibco BRL) supplemented with 0.1 mg/ml apotransferrin and 2.5 μg/ml insulin] containing 2,000 IU/ml DNase and 10 mg/ml ovomucoid protease inhibitor.
For dopamine uptake experiments, single-cell suspensions in complete media were seeded on poly-L-ornithine and laminin coated 24-well plates. The cultures were maintained for seven days prior to experimentation. Cultures were pretreated with various concentrations of the compound of formula (I) (washed with PBS and diluted with media to concentrations of 1 nM to 1000 nM) for 24 hours, then exposed to 10 μM the neurotoxin 1-methyl-4-phenylpyridinium (MPP^+) for 1 hour to assess the neuroprotective effect of the compound of formula (I) in cell culture. Following the 1 hour incubation, media was exchanged three times and fresh compound was added for an additional 48 hours.
More particularly, after 48 hours growth of mesencephalic dopaminergic neuron cultures following MPP^+ exposure, high-affinity ^3H-dopamine uptake was performed using a modified method described by Prochiantz et al., Nature 293: 570-572 (1981). Cultures were washed with pre-warmed phosphate-buffered saline (PBS) containing 5.6 mM glucose and 1 mM ascorbic acid. Cultures were then incubated for 15 minutes at 37° C. with 50 nM ^3H-dopamine (31 Ci/mmol, Du Pont-NEN, Wilmington, Del., U.S.A.). The cultures were washed twice with buffer and lysed with 0.5 N NaOH. The lysate was transferred to a scintillation vial containing Ultima Gold scintillation cocktail and radioactivity was determined with a liquid scintillation counter. Alternatively, culture lysates can be washed twice with buffer, incubated for 2 hours at room temperature with Optiphase Supermix scintillation cocktail (Wallac Scintillation Products, Gaithersburg, Md., USA), and radioactivity measured with a liquid scintillation counter.
MPP^+-induced neurotoxicity in a ^3H-dopamine uptake cell assay was measured. Neuroprotective effects in cell culture were measured by addition of the compound (1 nM to 1000 nM) to the culture in the presence of MPP.

[2] = tested on: cultured cortical neurons; assay: Neurofilament content in cultured cortical neurons (neurofilament antibody, colorimetric); details: 72 hours
Procedure: (§1) Dissociated cortical neuron cultures were prepared as previously described [Pong et al., Exp Neurol. 2001 September; 171(1):84-97 (2001)]. Briefly, embryonic day 15 rat fetuses were collected and dissected in ice-cold PBS. Dissected cortices were pooled together and transferred to an enzymatic dissociation medium containing papain. After 30 min, the tissue was mechanically triturated with a fire-polished glass Pasteur pipette. Single-cell suspensions in complete media were seeded on poly-L-ornithine and laminin coated 96-well plates. 24 hours later, cultures were treated with various concentrations of compound of formula (I) for 72 hours. The cultures were then fixed and stained with a neurofilament primary antibody and a peroxidase-tagged secondary antibody. A peroxidase substrate (K-Blue Max) was added and the colorimetric change was measure on a colorimetric plate reader.
as §1, with “(Pong” for “[Pong”, “2001).” for “Exp Neurol. 2001 September; 171(1):84-97 (2001)].”, “ploy-L-ornithine” for “poly-L-ornithine”, “compound” for “compound of formula (I)”, “calorimetric” for “colorimetric”

[3] = tested on: cultured cortical neurons; assay: Neurite outgrowth (ENO algorithm, Cellomics ArrayScan) in cultured cortical neurons; details: 72 hours
Procedure: Dissociated cortical neuron cultures were prepared as previously described (Pong et al., cited above, 2001). Briefly, embryonic day 15 rat fetuses were collected and dissected in ice-cold PBS. Dissected cortices were pooled together and transferred to an enzymatic dissociation medium containing papain. After 30 minutes, the tissue was mechanically triturated with a fire-polished glass Pasteur pipette. Single-cell suspensions in complete media were seeded on poly-L-ornithine and laminin coated 96-well plates. After 24 hours, cultures were treated with various concentrations of the compound of formula I for 72 hours. The cultures were then fixed and stained with an anti-tubulin primary antibody (TUJ-1) and a fluorescent-tagged secondary antibody. Neurite outgrowth was determined by using the Enhanced Neurite Outgrowth (ENO) algorithm with the Cellomics ArrayScan and expressed as total neurite length per cell.

[4] = tested on: cultured dorsal root ganglia; assay: Neurite outgrowth (ENO algorithm, Cellomics ArrayScan) in cultured dorsal root ganglia; details: 72 hours
Procedure: Dissociated dorsal root ganglia cultures were prepared as previously described [A. Wood et al., “Stimulation of neurite outgrowth by immunophilin ligands: quantitative analysis by Cellomics Array scan” Society for Neuroscience (2004), abstract 104.3] Briefly, postnatal day 3-5 rat pups were euthanized. The spinal columns were removed and individual dorsal root ganglia (DRG) were dissected out. Dissected DRG were pooled together and transferred to an enzymatic dissociation medium containing papain. After 60 minutes, the tissue was mechanically triturated with a fire-polished glass Pasteur pipette. Single-cell suspensions in complete media were seeded on poly-L-ornithine and laminin coated 96-well plates. After 24 hours, cultures were treated with various concentrations of the compound of formula I for 72 hours. The cultures were then fixed and stained with an anti-tubulin primary antibody (TUJ-1) and a fluorescent-tagged secondary antibody. Neurite outgrowth was determined by using the Enhanced Neurite Outgrowth (ENO) algorithm with the Cellomics ArrayScan and expressed as total neurite length per cell.

CC/C1=C\CC(/C(C)=C/C(C)C(C)O)OC(=O)C2CCCCN2C(=O)C(=O)C2(O)OC(CCC2C)CC(O)C(C)C(O)CC(O)CC(O)/C(C)=C/C(C)CC(C)C1O (centres unmarked) [meridamycin]
3H-DOPAMINE UPTAKE (% UNTREATED CONTROL) ([1]; 1 nM meridamycin, 24 h pretreatment, 10 uM MPP+ 1 h, compound further 48 h): 47% | 3H-DOPAMINE UPTAKE (% UNTREATED CONTROL) ([1]; 10 nM meridamycin, 24 h pretreatment, 10 uM MPP+ 1 h, compound further 48 h): 51% | 3H-DOPAMINE UPTAKE (% UNTREATED CONTROL) ([1]; 100 nM meridamycin, 24 h pretreatment, 10 uM MPP+ 1 h, compound further 48 h): 51% | 3H-DOPAMINE UPTAKE (% UNTREATED CONTROL) ([1]; 1000 Nm meridamycin, 24 h pretreatment, 10 uM MPP+ 1 h, compound further 48 h): 64% | EC50 ([1]; Rattus norvegicus, Neuron, relative to maximum protection (84% uptake) afforded by 10 ng/mL GDNF, read-out: EC50 of neuroprotection against MPP+-induced neurotoxicity): 555 nM | NEUROFILAMENT CONTENT (FOLD-INCREASE ABOVE UNTREATED CONTROL) ([2]; 10 nM meridamycin): 1.71 fold | NEUROFILAMENT CONTENT (FOLD-INCREASE ABOVE UNTREATED CONTROL) ([2]; 100 nM meridamycin): 2.24 fold | NEUROFILAMENT CONTENT (FOLD-INCREASE ABOVE UNTREATED CONTROL) ([2]; 1 μM meridamycin): 2.32 fold | NEUROFILAMENT CONTENT (FOLD-INCREASE ABOVE UNTREATED CONTROL) ([2]; 10 μM meridamycin): 2.56 fold | EC50 ([2]; Rattus norvegicus, Cortical neurone, cultured cortical neurons, read-out: EC50 of increased neuronal survival (neurofilament content)): 12 nM | Total Neurite Length (% Above Control) ([3]; 10 nM): 19% | Total Neurite Length (% Above Control) ([3]; 100 nM): 40% | Total Neurite Length (% Above Control) ([3]; 1 μM): 113% | Total Neurite Length (% Above Control) ([3]; 10 μM): 152% | Total Neurite Length (% Above Control) ([4]; 10 nM): 4% | Total Neurite Length (% Above Control) ([4]; 100 nM): 9% | Total Neurite Length (% Above Control) ([4]; 1 μM): 14% | Total Neurite Length (% Above Control) ([4]; 10 μM): 24%

C[n+]1ccc(-c2ccccc2)cc1 [MPP^+, 1-methyl-4-phenylpyridinium, reference compound]
3H-DOPAMINE UPTAKE (% UNTREATED CONTROL) ([1]; 10 uM MPP+ alone, 1 hour exposure, uptake 48 hours later): 40%

B1: GDNF: GDNF, 10 ng/mL, positive control that afforded maximum protection (protein, UniProt P39905 78-211, looked up)
Glial cell line-derived …: SPDKQMAVLPRRERNRQAAAANPENSRGKGRRGQRGKNRGCVLTAIHLNVTDLGLGYETKEELIFRYCSGSCDAAETTYDKILKNLSRNRRLVSDKVGQACCRPIAFDDDLSFLDDNLVYHILRKHSAKRCGCI
maximum protection (3H-dopamine uptake) ([1]; 10 ng/mL GDNF, MPP+-induced neurotoxicity): 84%
